Reference: patent US4963570A, “1-(acetylaminophenyl)-2-aminopropanone derivatives and pharmaceutical compositions thereof” (Laboratoire L. Lafon, priority 1983, dated 1990)
Entries after “also recorded” stand apart in the source; their conditions may differ. Counter-ions that a name gives are not always drawn.

Assays:
[1] = tested on: spleen cells expressing a direct IgM antibody response; assay: test for cells forming lysis areas (PFC IgM, Cunningham); type: in vivo, mouse; details: 0.1, 10 and 100 mg/kg
Protocol: Immunological assays were carried out in order to point out the interest of CRL 41 240 as an immunomodulating agent. Specifically, the test used was the so-called test for cells forming lysis areas, described by A. J. […] et al. ("Further improvements in the plaque technique for detecting simple antibody forming cells"), Immunology 14, pages 599-601 (1968).
The test for cells forming lysis areas (or PFC IgM) explores the humoral immunity. Four days after immunization with a T-dependent antigen (in this case red blood corpuscles of sheep), the spleen cells expressing a direct IgM antibody response are counted. The mice used for this purpose are conventional female OF1 mice devoid of specific pathogenic organisms, weighing from 20 to 30 g and divided up into a control group of 14 animals and groups each containing 7 animals per dose and per product to be studied, administered orally on the same day as the antigen. An activity index I is calculated for each dose of product according to the following equation: [formula]
This test is performed at least twice for each dose of test product [C(control amimals), 0.01, 0.1, 10 and 100 mg/kg] and a statistical study is undertaken using the Student t test after variance analysis on the number of lyses per spleen.

[2] = tested on: delayed hypersensitivity to the red blood corpuscles of sheep; assay: delayed hypersensitivity to the red blood corpuscles of sheep (Miller); type: in vivo
CNS = assay: overall neuropsychopharmacological (CNS) profile; type: in vivo, mouse; rat; details: i.p.
Protocol: The neuropsychopharmacological study of CRL 41 219 was carried out as indicated above for CRL 41 224.
The neuropsychopharmacological study of CRL 41 220 was carried out in accordance with the procedures given above for CRL 41 224.

immunological properties = assay: immunological properties, overall; type: in vivo; details: dose not stated
From the text: The present 1-(acetylaminophenyl)-2-aminopropanone derivatives are useful in therapy. They all act on the CNS, more precisely as antidepressants. They have a stimulant or excitant component in their neuropsychopharmacological profile.

mice [3] = assay: overall behavior and reactivities in mice; type: in vivo, mouse; details: i.p.; for excitation in mice: dose not stated
Protocol: (§1) Groups of three animals are observed before and then 0.25 hour, 0.50 hour, 1 hour, 2 hours, 3 hours and 24 hours after the administration of CRL 41 224.

rats [4] = assay: overall behavior and reactivities in rats; type: in vivo, rat; details: i.p., dose not stated
Protocol: as §1

mice [5] = assay: interaction with apomorphine in mice; type: in vivo, mouse; details: i.p.
Protocol: Groups of 6 mice receive CRL 41 224 0.5 hour before the subcutaneous injection of 1 or 16 mg/kg of apomorphine.

rats [6] = assay: interaction with apomorphine in rats; type: in vivo, rat; details: i.p., dose not stated
Protocol: CRL 41 224 is administered to groups of 6 rats 0.5 hour before the subcutaneous injection of 0.5 mg/kg of apomorphine.

rats [7] = assay: interaction with amphetamine; type: in vivo, rat; details: i.p.
Protocol: Amphetamine (2 mg/kg) is injected intraperitoneally into groups of 6 rats 30 minutes after the administration of CRL 41 224.

mice [8] = assay: interaction with reserpine; type: in vivo, mouse; details: i.p.
Protocol: Four hours after the intraperitoneal injection of 2.5 mg/kg of reserpine, groups of 6 mice receive CRL 41 224.

mice [9] = assay: interaction with oxotremorine; type: in vivo, mouse; details: i.p.
Protocol: CRL 41 224 is administered to groups of 6 mice 0.5 hour before the intraperitoneal injection of 0.5 mg/kg of oxotremorine.

mice [10] = assay: four plate test, traction and electric shock; type: in vivo, mouse; details: i.p.
Protocol: The test is performed on groups of 10 mice 30 minutes after the administration of CRL 41 224.

mice [11] = assay: action on the spontaneous motility (actimeter); type: in vivo, mouse; details: mice, i.p.; dose not stated
Protocol: 0.5 hour after they have received CRL 41 224, the mice (6 per dose, 12 control animals) are placed in an actimeter, where their motility is recorded for 30 minutes.

mice [12] = assay: motility reduced by habituation to the enclosure; type: in vivo, mouse; details: i.p.
Protocol: After they have stayed in the actimeters for 18 hours, the mice (6 per dose, 12 control animals) receive CRL 41 224. They are immediately returned to their respective enclosures and, half an hour later, their motility is recorded for 30 minutes.

mice [13] = assay: motility reduced by hypoxic aggression; type: in vivo, mouse; details: i.p.; for motor recovery after hypoxic aggression: dose not stated
Protocol: Half an hour after they have received CRL 41 224, the mice (10 per dose, 20 control animals) are subjected to acute hypobaric anoxia [pressure reduction of 600 mm Hg (i.e. about 8×10^4 Pa) in 90 seconds; release of vacuum in 45 seconds] and are then placed in an actimeter, where their motility is recorded for 10 minutes.

mice [14] = assay: interaction with barbital; type: in vivo, mouse; details: i.p.; dose not stated
Protocol: Half an hour after the administration of CRL 41 224, groups of 10 mice receive an intraperitoneal injection of barbital (220 mg/kg).

mice [15] = assay: action on the behavioral despair; type: in vivo, mouse; details: i.p.; for period of immobility or "despair": dose not stated
From the text: Half an hour after they have received CRL 41 224, groups of 6 mice are placed in a beaker filled with water to a height of 6 cm. The total period of immobility between the 2nd and 6th minutes following immersion is noted.

[16] = tested on: peripheral α-adrenergic stimulation; assay: signs of peripheral adrenergic stimulation; type: in vivo, mouse; rat; details: i.p.; dose not stated
Protocol: as §1

mice [17] = assay: toxicity to grouped mice compared with isolated mice; type: in vivo, mouse
rats [18] = assay: action on stereotypies in rats (α-methyltyrosine, haloperidol, reserpine); details: for suppression of induced stereotype movements by prior injection of alpha-methyltyrosine: i.p.
male mice [19] = details: reference stimulant agents; cited from earlier work
male mice [20] = assay: acute toxicity, intraperitoneal (lethal doses); type: in vivo, mouse; details: i.p.
Protocol: By intraperitoneal administration to male mice, the LD-30 (lethal dose for 30% of the animals tested) is of the order of 128 mg/kg and the LD-50 is of the order of about 200 mg/kg.

## CC(=O)Nc1cccc(C(=O)C(C)N2CCCCC2)c1 (stereo not shown) [CRL 41 262, 1-(3-acetylaminophenyl)-2-piperidinopropanone hydrochloride]
[1]
  immunostimulant activity, PFC IgM test: immunostimulant activity
[2]; oral, 10 and 100 mg/kg
  immunostimulant activity, delayed hypersensitivity: immunostimulant activity
CNS; mice and rats, dose not stated
  overall action on the CNS: antidepressant and stimulant effects on the CNS
Immunological properties; hydrochloride
  immunological properties, overall: beneficial immunomodulating effects; also recorded: particularly valuable as an immunomodulator

## CCCNC(C)C(=O)c1ccc(NC(C)=O)cc1 (stereo not shown) [CRL 41 212]
Mice [3]
  excitation in mice: excitation with hyperreactivity in mice
Rats [4]
  stereotype movements in rats: stereotype movements in rats
Mice [5]; dose not stated
  hypothermia induced by apomorphine: antagonism of the hypothermia induced by apomorphine
Rats [6]
  stereotypies induced by apomorphine: potentiation of the stereotypies induced by apomorphine
Rats [7]; rats, dose not stated
  stereotypies induced by amphetamine: potentiation of the stereotypies induced by apomorphine or amphetamine
Mice [8]; dose not stated
  hypothermia induced by reserpine: antagonism of the hypothermia induced by apomorphine, oxotremorine or reserpine
  ptosis induced by reserpine: antagonism of the ptosis induced by reserpine
Mice [9]; dose not stated
  hypothermia induced by oxotremorine: antagonism of the hypothermia induced by apomorphine, oxotremorine
  trembling caused by oxotremorine: antagonism of the trembling caused by oxotremorine
Mice [10]; dose not stated
  convulsant effects of electric shock: anticonvulsant effects
Mice [11]
  spontaneous motility / motor activity: an increase in the spontaneous motility in mice
Mice [12]; dose not stated
  motor activity after habituation to the enclosure: a resumption in the motor activity of mice accustomed to their enclosure
Mice [13]
  motor recovery after hypoxic aggression: an improvement in the motor recovery in mice after acute hypoxia
Mice [14]
  sleep induced by barbital: antagonism of the sleep induced by barbital
Mice [15]
  period of immobility or "despair": a reduction in the immobility
CNS; mice and rats, dose not stated
  overall action on the CNS: stimulant effects; also recorded: antidepressant effects
[16]
  exophthalmos: absent
  mydriasis: mydriasis
  peripheral adrenergic stimulation, overall: effects which may reflect peripheral adrenergic stimulation
  salivation: absent
Mice [17]
  toxicity to grouped mice compared with isolated mice: do not increase the toxicity to grouped mice
Rats [18]
  suppression of induced stereotype movements by prior injection of alpha-methyltyrosine: not suppressed

## CC(N)Cc1ccccc1 (stereo not shown) [amphetamine, reference compound]
Male mice [19]
  motor effects with I.V.C. administration of noradrenaline: potentialized by I.V.C. administration of noradrenaline
Rats [18]; haloperidol 0.25 mg/kg i.p. 0.5 h before
  effect of haloperidol on induced stereotypies: almost totally prevents the appearance of stereotypies
Rats [18]; haloperidol 0.5 mg/kg i.p. 0.5 h before
  effect of haloperidol on induced stereotypies: totally inhibits the said stereotypies

## CN1Cc2c(N)cccc2C(c2ccccc2)C1 (stereo not shown) [nomifensine]
Male mice [19]
  motor effects with I.V.C. administration of noradrenaline: potentialized by I.V.C. administration of noradrenaline

## COC(=O)[C@H]1[C@@H](OC(=O)c2ccccc2)C[C@@H]2CC[C@H]1N2C [cocaine]
Male mice [19]
  motor effects with I.V.C. administration of noradrenaline: potentialized by I.V.C. administration of noradrenaline

## COC(=O)C(c1ccccc1)C1CCCCN1 (stereo not shown) [methylphenidate, reference compound]
Male mice [19]
  motor effects with I.V.C. administration of noradrenaline: potentialized by I.V.C. administration of noradrenaline
Rats [18]; reserpine 4 mg/kg i.p. 24 hours before
  effect of reserpine on induced stereotypies: only a moderate reduction of the stereotypies

## CC(=O)Nc1ccc(C(=O)C(C)N2CCSCC2)cc1 (stereo not shown) [CRL 41 247]
Male mice [20]
  LD-0 (maximum non-lethal dose): greater than 512 mg/kg
  LD-60: about 1000 mg/kg
Mice [3]; 256 mg/kg, 30 minutes after administration
  hypothermia, temperature change: -3.3 °C
Mice [3]; strong/high doses
  body temperature (hypothermia): hypothermia
Mice [5]; strong doses
  hypothermia induced by apomorphine: very moderate antagonism of the hypothermia induced by apomorphine
Rats [7]; strong doses
  stereotypies induced by amphetamine: potentiation of the stereotypies induced by amphetamine
Mice [8]; strong doses
  hypothermia induced by reserpine: no antagonism towards the hypothermia induced by reserpine
Mice [9]; strong/high doses
  hypothermia induced by oxotremorine: very moderate antagonism of the hypothermia induced by apomorphine and oxotremorine
Mice [10]; strong/high dose
  convulsant effects of electric shock: a reduction in the convulsant effects of electric shock
Mice [12]; strong doses
  motor activity after habituation to the enclosure: an increase in the motor activity of mice after habituation to their enclosure
Mice [13]; strong doses
  motor activity after acute hypoxia: an increase in the motor activity of mice after habituation to their enclosure and after acute hypoxia
Mice [15]; strong/high doses
  period of immobility of mice forcibly immersed: a reduction in the period of immobility
[2]; dose not stated
  cell activity (technique of Miller et al.): stimulates cell activity
CNS; strong/high doses
  overall action on the CNS: discreet antidepressant effects; also recorded: stimulant effects
Immunological properties
  immunological properties, overall: beneficial immunomodulating effects

## CNC(C)C(=O)c1ccc(NC(C)=O)cc1 (stereo not shown) [CRL 41 217]
Mice [3]
  excitation in mice: excitation with hyperreactivity in mice
Rats [4]
  stereotype movements in rats: stereotype movements in rats
Mice [5]; dose not stated
  hypothermia induced by apomorphine: antagonism of the hypothermia induced by apomorphine
Rats [6]
  stereotypies induced by apomorphine: potentiation of the stereotypies induced by apomorphine
Rats [7]; rats, dose not stated
  stereotypies induced by amphetamine: potentiation of the stereotypies induced by apomorphine or amphetamine
Mice [8]; dose not stated
  hypothermia induced by reserpine: antagonism of the hypothermia induced by apomorphine, oxotremorine or reserpine
  ptosis induced by reserpine: antagonism of the ptosis induced by reserpine
Mice [9]; dose not stated
  hypothermia induced by oxotremorine: antagonism of the hypothermia induced by apomorphine, oxotremorine
  trembling caused by oxotremorine: antagonism of the trembling caused by oxotremorine
Mice [10]; dose not stated
  convulsant effects of electric shock: potentiate the convulsant effects of electric shock
Mice [11]
  spontaneous motility / motor activity: an increase in the spontaneous motility in mice
Mice [12]; dose not stated
  motor activity after habituation to the enclosure: a resumption in the motor activity of mice accustomed to their enclosure
Mice [13]
  motor recovery after hypoxic aggression: an improvement in the motor recovery in mice after acute hypoxia
Mice [14]
  sleep induced by barbital: antagonism of the sleep induced by barbital
Mice [15]
  period of immobility or "despair": a reduction in the immobility
CNS; mice and rats, dose not stated
  overall action on the CNS: stimulant effects; also recorded: antidepressant effects
[16]
  exophthalmos: absent
  mydriasis: mydriasis
  peripheral adrenergic stimulation, overall: effects which may reflect peripheral adrenergic stimulation
  salivation: absent
Mice [17]
  toxicity to grouped mice compared with isolated mice: do not increase the toxicity to grouped mice
Rats [18]
  suppression of induced stereotype movements by prior injection of alpha-methyltyrosine: not suppressed
